T1: DR6 extracellular domain-FC chimera (Homo sapiens, UniProt O75509)
T1 construct: wells of a microtiter plate were coated with 100 ng of a DR6 extracellular-Fc chimeric recombinant protein overnight
T1 sequence (O75509 42-349 limits assumed): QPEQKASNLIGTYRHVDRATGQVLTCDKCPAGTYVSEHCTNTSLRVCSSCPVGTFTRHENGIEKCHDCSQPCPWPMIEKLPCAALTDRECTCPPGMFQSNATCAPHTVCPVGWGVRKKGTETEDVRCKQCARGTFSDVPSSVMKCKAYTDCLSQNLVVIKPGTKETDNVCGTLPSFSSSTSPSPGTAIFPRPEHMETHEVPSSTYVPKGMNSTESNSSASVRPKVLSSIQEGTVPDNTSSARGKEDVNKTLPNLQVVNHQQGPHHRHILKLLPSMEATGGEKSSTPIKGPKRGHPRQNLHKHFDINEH

T2: DR6 in whole extracts of THP-1 cells (Homo sapiens, UniProt O75509)
T2 construct: SDS detergent extracts of THP-1 cells were separated on SDS-PAGE and blotted onto PVD membranes; endogenous in cells; host or cells: THP-1 cells
T2 sequence (O75509 42-655): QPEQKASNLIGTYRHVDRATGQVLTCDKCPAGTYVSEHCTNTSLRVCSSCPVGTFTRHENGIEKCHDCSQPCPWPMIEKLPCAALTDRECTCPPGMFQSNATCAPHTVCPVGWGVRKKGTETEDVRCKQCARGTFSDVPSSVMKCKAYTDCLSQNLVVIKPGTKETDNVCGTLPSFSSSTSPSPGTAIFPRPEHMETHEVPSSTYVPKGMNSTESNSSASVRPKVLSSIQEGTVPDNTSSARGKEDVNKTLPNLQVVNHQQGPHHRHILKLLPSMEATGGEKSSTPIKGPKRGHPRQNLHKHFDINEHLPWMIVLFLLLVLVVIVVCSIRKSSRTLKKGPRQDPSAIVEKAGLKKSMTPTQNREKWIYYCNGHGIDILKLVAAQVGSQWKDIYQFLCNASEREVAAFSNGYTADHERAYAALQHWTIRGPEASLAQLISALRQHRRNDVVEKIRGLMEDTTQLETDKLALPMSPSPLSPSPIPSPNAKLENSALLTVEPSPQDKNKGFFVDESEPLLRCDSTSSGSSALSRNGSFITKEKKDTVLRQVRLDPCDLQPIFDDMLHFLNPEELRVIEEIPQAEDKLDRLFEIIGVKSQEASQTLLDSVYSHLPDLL

T3: death receptor-6 (DR6) (Homo sapiens, UniProt O75509)
T3 sequence (O75509 42-655): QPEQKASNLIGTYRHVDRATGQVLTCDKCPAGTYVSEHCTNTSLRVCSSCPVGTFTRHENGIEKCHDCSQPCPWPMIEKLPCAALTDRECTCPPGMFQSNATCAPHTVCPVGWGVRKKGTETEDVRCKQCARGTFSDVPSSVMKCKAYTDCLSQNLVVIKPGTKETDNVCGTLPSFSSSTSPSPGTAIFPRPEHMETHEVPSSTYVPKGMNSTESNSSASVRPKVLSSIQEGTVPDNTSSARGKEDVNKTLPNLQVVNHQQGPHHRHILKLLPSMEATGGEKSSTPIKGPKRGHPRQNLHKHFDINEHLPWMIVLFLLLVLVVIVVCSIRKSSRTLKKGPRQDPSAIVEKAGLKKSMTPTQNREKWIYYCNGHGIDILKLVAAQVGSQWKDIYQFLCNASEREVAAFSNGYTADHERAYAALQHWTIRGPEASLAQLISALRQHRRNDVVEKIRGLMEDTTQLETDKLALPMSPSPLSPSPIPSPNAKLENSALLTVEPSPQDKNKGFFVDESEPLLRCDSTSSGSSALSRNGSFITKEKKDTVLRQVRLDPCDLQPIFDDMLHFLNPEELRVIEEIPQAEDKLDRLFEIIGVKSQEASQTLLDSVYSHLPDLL

T4: DR6 extracellular-Fc chimeric recombinant protein (UniProt O75509 42-349, limits assumed)
T4 construct: extracellular domain; also called DR6 extracellular domain-FC chimera; DR6-Fc; not shown: Fc part
T4 sequence (looked up): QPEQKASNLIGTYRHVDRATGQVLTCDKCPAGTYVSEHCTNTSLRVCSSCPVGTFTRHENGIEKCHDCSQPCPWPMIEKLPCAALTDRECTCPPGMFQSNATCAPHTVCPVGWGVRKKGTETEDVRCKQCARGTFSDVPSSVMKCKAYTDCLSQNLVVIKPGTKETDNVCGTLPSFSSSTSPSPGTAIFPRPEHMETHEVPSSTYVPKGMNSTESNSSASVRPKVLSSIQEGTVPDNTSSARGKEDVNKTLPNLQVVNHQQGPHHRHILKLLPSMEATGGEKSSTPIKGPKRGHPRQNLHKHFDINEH

B1: Angiocidin (ligand, UniProt P55036 1-377, looked up)
chain: MVLESTMVCVDNSEYMRNGDFLPTRLQAQQDAVNIVCHSKTRSNPENNVGLITLANDCEVLTTLTPDTGRILSKLHTVQPKGKITFCTGIRVAHLALKHRQGKNHKMRIIAFVGSPVEDNEKDLVKLAKRLKKEKVNVDIINFGEEEVNTEKLTAFVNTLNGKDGTGSHLVTVPPGPSLADALISSPILAGEGGAMLGLGASDFEFGVDPSADPELALALRVSMEEQRQRQEEEARRAAAASAAEAGIATTGTEDSDDALLKMTISQQEFGRTGLPDLSSMTEEEQIAYAMQMSLQGAEFGQAESADIDASSAMDTSEPAKEEDDYDVMQDPEFLQSVLENLPGVDPNNEAIRNAMGSLASQATKDGKKDKKEEDKK
modifications: Alexa Fluor 488 label (flow cytometry) or biotin label (ELISA, blot); sites not stated; also used unlabeled as competitor
notes: Labelled and unlabelled preparations are kept as one molecule
B2: 5 mer (ALKHR peptide) (peptide)
peptide: ALKHR
notes: Five-residue peptide from angiocidin; also called Angio-pep; 5 mer peptide

Assays:
[1] = target: T1, DR6 extracellular domain-FC chimera; test: ELISA binding of biotinylated angiocidin to plate-coated DR6 extracellular-Fc chimeric recombinant protein; conditions: for Blocking of binding of biotinylated angiocidin to DR6: 1 μg/ml biotinylated angiocidin, 50 μg/ml 5 mer, 10 μg/ml anti-DR6 IgG or 50 μg/ml unlabeled angiocidin
Procedure: (§1) The next experiment was performed to characterize the binding of DR6 with angiocidin. Briefly, wells of a microtiter plate were coated with 100 ng of a DR6 extracellular-Fc chimeric recombinant protein overnight. Wells were then washed in PBS and blocked with 1% BSA. Blocked wells were incubated with shaking with 200 μl of PBS containing various concentrations of biotinylated angiocidin for one hour. Wells were than washed and incubated with shaking with a 1:10,000 dilution of a 1 mg/ml solution of streptavidin-HRP in PBS. Wells were washed 3 times in PBS and bound streptavidin HRP was detected by incubation of the wells with 100 μl of 3,3′,5,5′-tetramethylbenzidine (TMB) with shaking for 5 min. Reactions were stopped by the addition of 50 μl of 1 M HCl and the color read in an ELISA reader at 450 nm.
(§2) The next experiment was performed to further characterize the binding between DR6 and angiocidin. It was observed that the binding of angiocidin to DR6 was blocked with anti-DR6 IgG, 5 mer peptide, and unlabeled angiocidin. Wells contained either 1 μg/ml of biotinylated angiocidin alone or 50 μg/ml 5 mer, 10 μg/ml of anti-DR6 IgG or 50 μg/ml unlabeled angiocidin.

THP-1 cells [2] = test: Differentiation marker expression (CD14, CD54, CD36) in THP-1 cells, flow cytometry; format: cell-based; conditions: for Leukemia cell differentiating activity, comparison of 5 mer, 20 mer and angiocidin / Upregulation of CD54 in THP-1 leukemia cells: FIGS. 8-11; for Upregulation of CD54 in THP-1 cells: after 24 hours incubation, FIG. 8
Procedure: FIG. 10 is an image showing the comparison between angiocidin, the 5 mer, and a 20 mer (F86-H105) […]; SEQ ID NO: 2 on the expression of CD14 and CD54. Briefly, THP-1 cells were grown in the presence of various concentrations of peptide overnight and then the cells were assayed by flow cytometry for expression of CD14 and CD54.
FIG. 11 is an image showing the comparison between the 20 mer, 5 mer and angiocidin on the expression of CD14 and CD54 up-regulation in THP-1 cells and two primary leukemia cells. Cells were treated with peptide at 10 ug/ml for 12 hours and CD14 and CD54 were measured by flow cytometry.
THP-1 cells were cultured in RPMI media for 24 hours containing no peptides or angiocidin or 2, 10 μg/ml of either angiocidin, 5 mer, peptide or a control peptide, r5 mer having the reverse sequence of the 5 mer. Marker expression was measured by flow cytometry.

[3] = system: three different leukemia cell lines; test: Cytokine upregulation in three leukemia cell lines; format: cell-based
Procedure: Experiments were also performed comparing the leukemia cell differentiating activity of the 5 mer, the 20 mer and angiocidin.

THP-1 cells [4] = test: Binding of Alexa Fluor 488 labeled angiocidin to THP-1 cells, flow cytometry
Procedure: Experiments were performed to evaluate the interaction between DR-6 and angiocidin. […] Briefly, THP-1 cells were plated in 6 well dishes in serum-free media. Cells were untreated or treated for 30 min at 37° with either 2.5 μg/ml of Angiocidin labeled with Alexa Fluor 488 (Angio-488), Angio-448+10 μg/ml control rabbit IgG, Angio-488+10 μg/ml rabbit Anti-DR6 IgG, Angio-488+10 μg/ml unlabeled Angiocidin. Cells were washed twice in PBS and the percent positive Angio-488 measured by flow cytometry.

[5] = target: T2, DR6 in whole extracts of THP-1 cells; test: Blot overlay of biotinylated angiocidin on SDS extracts of THP-1 cells; format: binding; conditions: 0.1 mg/ml biotinylated angiocidin, one hour
Procedure: Briefly, SDS detergent extracts of THP-1 cells were separated on SDS-PAGE and blotted onto PVD membranes. Membranes were washed in tris-buffered saline containing 0.1% Tween 20 detergent (TBS-T) and 1% BSA and incubated with 0.1 mg/ml of biotinylated angiocidin in the presence or absence of 10 μg/ml rabbit Anti-DR6 antibody. After incubation for one hour membranes were washed in TBS-T and incubated with 1:10,000 dilution of a 1 mg/ml solution of streptavidin HRP in PBS for 30 min. Membranes were then washed, treated with a chemiluminescent substrate for HRP and developed for chemiluminescence using X-ray film. In the panel on the right, recombinant DR6-Fc was used as the positive control.

death receptor-6 (DR6) = target: T3, death receptor-6 (DR6); test: Binding strength of DR6 for angiocidin compared with previously reported binding proteins
THP-I leukemia cells = test: Blocking DR6 on THP-I leukemia cells: effect on the differentiating activity of angiocidin; format: cell-based; conditions: mediated by DR6
Description: Additionally, the DR6 binding domain of angiocidin is located in a 5 amino acid sequence (ALKHR; SEQ ID NO: 1) present near the N-terminal domain of angiocidin. Accordingly, the 5 mer (ALKHR; SEQ ID NO: 1) is a potentially non-toxic alternative treatment of AML

[6] = target: T4, DR6 extracellular-Fc chimeric …; test: not stated (opening statement of Example 1)
[7] = target: T4, DR6 extracellular-Fc chimeric …; test: competition ELISA on coated DR6 extracellular domain-Fc, 50 ug/ml 5 mer against 1 ug/ml biotinylated angiocidin
Procedure: as §1, with “nm. It was observed that angiocidin binds the extracellular domain of DR6 (DR6 extracellular domain-FC chimera) in vitro (FIG. 2).” for “nm.”
as §2

Molecule | Blocking of binding of biotinylated angiocidin to DR6 [1] | Leukemia cell differentiating activity, comparison of 5 mer, 20 mer and angiocidin (THP-1 cells [2]) | Upregulation of CD54 in THP-1 leukemia cells (THP-1 cells [2]) | Upregulation of CD54 in THP-1 cells (THP-1 cells [2]) | Upregulation of cytokine panel [3] | other results
ALKHR [5 mer] | blocked | nearly identical leukemia cell differentiating activities | upregulate CD54 | upregulate CD54 | upregulate a similar panel of cytokines | Differentiation activity measured by upregulation of CD14, CD54, CD36 (THP-1 cells [2]; THP-1 cells, RPMI, 24 hours, 2, 10 μg/ml): mimics the differentiation activity of angiocidin
Angio-488: Angiocidin labeled with Alexa Fluor 488 [reference compound] | – | – | – | – | – | Affinity for cell bound DR6 after labeling with Alexa Fluor 488 (THP-1 cells [4]; inferred from competition by unlabeled angiocidin): did not alter its affinity for cell bound DR6
FCTGIRVAHLALKHRQGKNH [20 mer, 20 mer peptide of the anti-tumor domain of angiocidin] | – | nearly identical leukemia cell differentiating activities | upregulate CD54 | – | upregulate a similar panel of cytokines | –
angiocidin: protein originally isolated from lung carcinoma, receptor for thrombospondin-1, inhibitor of angiogenesis and tumor cell proliferation | blocked | nearly identical leukemia cell differentiating activities | upregulate CD54 | upregulate CD54 | upregulate a similar panel of cytokines | Inhibition of binding of Angio-488 to THP-1 cells (percent positive Angio-488) (THP-1 cells [4]; 2.5 μg/ml Angio-488 plus 10 μg/ml competitor, 30 min at 37°, serum-free media): competed with the binding of Angio-488; Binding of biotinylated angiocidin to the extracellular domain of DR6 ([1]; 100 ng DR6-Fc coated, various concentrations, one hour, read at 450 nm): binds the extracellular domain of DR6; Binding of angiocidin to DR6 in whole extracts of THP-1 cells [5]: binds to DR6 in whole extracts of THP-1 cells; Binding strength of DR6 for angiocidin relative to other reported binding proteins and peptides (death receptor-6 (DR6)): more than 100 times; Differentiating activity on THP-I leukemia cells (THP-I leukemia cells): transforms THP-I leukemia cells into normal macrophage-like cells
B1 | – | – | – | – | – | fold stronger binding than the other binding proteins and peptides previously reported for angiocidin [6]: > 100 times
B2 | – | – | – | – | – | binding result [7]: binds

Reference: patent US20170174734A1, “DR6 Receptor Mediates the Leukemia Differentiation Activity of Angiocidin: A Potent Anti-Tumor Peptide” (Temple University-Of The Commonwealth System of Higher …, priority 2014, published 2017)
